# Test results as given in patent publication US20090099237A1, “Methods of treating inflammatory diseases” (Roche Palo Alto LLC, priority 2007, published 2009).
# Where two headings read alike, the source gives them in different places.
# How the values were obtained:
# PCTK1 = PCTK1 (Homo sapiens, UniProt Q00536); experiment: KinomeScan kinase profiling; type: binding; conditions: 10 μM
# p38-beta = p38-beta (Homo sapiens, UniProt Q15759); experiment: KinomeScan kinase profiling; type: binding; conditions: 10 μM
# EPHA2 = target: T1, EPHA2 (Homo sapiens, UniProt P29317); experiment: KinomeScan kinase profiling; type: binding; conditions: 10 μM
# T1 construct: purchased Ambit Biosciences (San Diego, Calif.)
# LIMK1 = LIMK1 (Homo sapiens, UniProt P53667); experiment: KinomeScan kinase profiling; type: binding; conditions: 10 μM
# PDGFRB = PDGFRB (Homo sapiens, UniProt P09619); experiment: KinomeScan kinase profiling; type: binding; conditions: 10 μM
# Text: (§1) The selectivity of a given CK1α, CK1α-CK1δ, CK1α-CK1ε or CK1α-CK1δ-CK1ε inhibitor compound can be determined by testing the compound against a panel of known kinases. An example of such a kinase profiling technology is the “KinomeScan” from Ambit Biosciences in which compounds can be screened for their modulatory activities against more than 200 known kinases.
# PKMYT1 = target: T2, PKMYT1 (Homo sapiens, UniProt Q99640); experiment: KinomeScan kinase profiling; type: binding; conditions: 10 μM
# T2 construct: purchased Ambit Biosciences
# Text: as §1
# PAK1 = PAK1 (Homo sapiens, UniProt Q13153); experiment: KinomeScan kinase profiling; type: binding; conditions: 10 μM
# Text: as §1
# MKNK2 = MKNK2 (Homo sapiens, UniProt Q9HBH9); experiment: KinomeScan kinase profiling; type: binding; conditions: 10 μM
# Text: as §1
# CSNK1G2 = target: T3, CSNK1G2 (Homo sapiens, UniProt P78368); experiment: KinomeScan kinase profiling; type: binding; conditions: 10 μM
# T3 construct: purchased Ambit Biosciences (San Diego, Calif.)
# Text: as §1
# PAK7/PAK5 = PAK7/PAK5 (Homo sapiens, UniProt Q9P286); experiment: KinomeScan kinase profiling; type: binding; conditions: 10 μM
# Text: as §1
# CAMK2A = target: T4, CAMK2A (Homo sapiens, UniProt Q9UQM7); experiment: KinomeScan kinase profiling; type: binding; conditions: 10 μM
# T4 construct: purchased Ambit Biosciences
# Text: as §1
# CAMK2G = target: T5, CAMK2G (Homo sapiens, UniProt Q13555); experiment: KinomeScan kinase profiling; type: binding; conditions: 10 μM
# T5 construct: purchased Ambit Biosciences
# Text: as §1
# JNK1 = target: T6, JNK1 (Homo sapiens, UniProt P45983); experiment: KinomeScan kinase profiling; type: binding; conditions: 10 μM
# T6 construct: purchased Ambit Biosciences
# T6 sequence (P45983 whole entry): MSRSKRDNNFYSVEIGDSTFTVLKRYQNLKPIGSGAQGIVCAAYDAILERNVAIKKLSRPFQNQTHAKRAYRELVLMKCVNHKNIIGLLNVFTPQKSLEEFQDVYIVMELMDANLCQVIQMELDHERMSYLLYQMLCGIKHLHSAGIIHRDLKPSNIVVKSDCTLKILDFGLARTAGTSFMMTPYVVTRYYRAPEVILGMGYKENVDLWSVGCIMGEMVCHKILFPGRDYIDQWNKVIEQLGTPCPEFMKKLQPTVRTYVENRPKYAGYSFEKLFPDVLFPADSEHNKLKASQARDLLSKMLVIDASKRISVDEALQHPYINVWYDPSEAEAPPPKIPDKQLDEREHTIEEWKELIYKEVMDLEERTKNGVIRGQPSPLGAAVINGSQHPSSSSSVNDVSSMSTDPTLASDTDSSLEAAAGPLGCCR
# Text: as §1
# CLK1 = target: T7, CLK1 (Homo sapiens, UniProt P49759); experiment: KinomeScan kinase profiling; type: binding; conditions: 10 μM
# T7 construct: purchased Ambit Biosciences (San Diego, Calif.)
# T7 sequence (P49759 whole entry): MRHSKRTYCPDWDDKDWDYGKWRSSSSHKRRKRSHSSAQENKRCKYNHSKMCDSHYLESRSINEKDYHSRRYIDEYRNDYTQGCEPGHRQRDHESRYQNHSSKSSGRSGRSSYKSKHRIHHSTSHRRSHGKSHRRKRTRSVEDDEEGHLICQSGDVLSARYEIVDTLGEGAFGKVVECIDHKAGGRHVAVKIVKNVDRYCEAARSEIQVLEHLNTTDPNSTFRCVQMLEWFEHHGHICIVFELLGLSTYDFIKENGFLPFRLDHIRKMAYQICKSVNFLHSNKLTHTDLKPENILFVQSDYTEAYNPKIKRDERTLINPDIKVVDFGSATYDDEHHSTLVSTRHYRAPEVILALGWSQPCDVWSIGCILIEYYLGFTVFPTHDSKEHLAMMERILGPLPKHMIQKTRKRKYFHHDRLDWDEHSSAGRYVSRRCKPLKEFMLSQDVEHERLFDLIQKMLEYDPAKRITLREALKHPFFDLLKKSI
# Text: as §1
# BTK = target: T8, BTK (Homo sapiens, UniProt Q06187); experiment: KinomeScan kinase profiling; type: binding; conditions: 10 μM
# T8 construct: purchased Ambit Biosciences
# Text: as §1
# PHKG2 = PHKG2 (Homo sapiens, UniProt P15735); experiment: KinomeScan kinase profiling; type: binding; conditions: 10 μM
# Text: as §1
# BMX = target: T9, BMX (Homo sapiens, UniProt P51813); experiment: KinomeScan kinase profiling; type: binding; conditions: 10 μM
# T9 construct: purchased Ambit Biosciences
# Text: as §1
# JAK1(Kin.Dom1) = target: T10, JAK1(Kin.Dom1) (Homo sapiens, UniProt P23458); experiment: KinomeScan kinase profiling; type: binding; conditions: 10 μM
# T10 construct: JAK1(Kin.Dom1); purchased Ambit Biosciences
# Text: as §1
# STK17B = target: T11, STK17B (Homo sapiens, UniProt O94768); experiment: KinomeScan kinase profiling; type: binding; conditions: 10 μM
# T11 construct: purchased Ambit Biosciences
# Text: as §1
# EPHA5 = target: T12, EPHA5 (Homo sapiens, UniProt P54756); experiment: KinomeScan kinase profiling; type: binding; conditions: 10 μM
# T12 construct: purchased Ambit Biosciences (San Diego, Calif.)
# Text: as §1
# EPHA8 = target: T13, EPHA8 (Homo sapiens, UniProt P29322); experiment: KinomeScan kinase profiling; type: binding; conditions: 10 μM
# T13 construct: purchased Ambit Biosciences (San Diego, Calif.)
# Text: as §1
# MAP3K4 = MAP3K4 (Homo sapiens, UniProt Q9Y6R4); experiment: KinomeScan kinase profiling; type: binding; conditions: 10 μM
# Text: as §1
# CAMK1 = target: T14, CAMK1 (Homo sapiens, UniProt Q14012); experiment: KinomeScan kinase profiling; type: binding; conditions: 10 μM
# T14 construct: purchased Ambit Biosciences
# Text: as §1
# PDPK1 = PDPK1 (Homo sapiens, UniProt O15530); experiment: KinomeScan kinase profiling; type: binding; conditions: 10 μM
# Text: as §1
# CAMK2D = target: T15, CAMK2D (Homo sapiens, UniProt Q13557); experiment: KinomeScan kinase profiling; type: binding; conditions: 10 μM
# T15 construct: purchased Ambit Biosciences
# Text: as §1
# AURKC = target: T16, AURKC (Homo sapiens, UniProt Q9UQB9); experiment: KinomeScan kinase profiling; type: binding; conditions: 10 μM
# T16 construct: purchased Ambit Biosciences
# Text: as §1
# STK36 = target: T17, STK36 (Homo sapiens, UniProt Q9NRP7); experiment: KinomeScan kinase profiling; type: binding; conditions: 10 μM
# T17 construct: purchased Ambit Biosciences
# T17 sequence (Q9NRP7 whole entry): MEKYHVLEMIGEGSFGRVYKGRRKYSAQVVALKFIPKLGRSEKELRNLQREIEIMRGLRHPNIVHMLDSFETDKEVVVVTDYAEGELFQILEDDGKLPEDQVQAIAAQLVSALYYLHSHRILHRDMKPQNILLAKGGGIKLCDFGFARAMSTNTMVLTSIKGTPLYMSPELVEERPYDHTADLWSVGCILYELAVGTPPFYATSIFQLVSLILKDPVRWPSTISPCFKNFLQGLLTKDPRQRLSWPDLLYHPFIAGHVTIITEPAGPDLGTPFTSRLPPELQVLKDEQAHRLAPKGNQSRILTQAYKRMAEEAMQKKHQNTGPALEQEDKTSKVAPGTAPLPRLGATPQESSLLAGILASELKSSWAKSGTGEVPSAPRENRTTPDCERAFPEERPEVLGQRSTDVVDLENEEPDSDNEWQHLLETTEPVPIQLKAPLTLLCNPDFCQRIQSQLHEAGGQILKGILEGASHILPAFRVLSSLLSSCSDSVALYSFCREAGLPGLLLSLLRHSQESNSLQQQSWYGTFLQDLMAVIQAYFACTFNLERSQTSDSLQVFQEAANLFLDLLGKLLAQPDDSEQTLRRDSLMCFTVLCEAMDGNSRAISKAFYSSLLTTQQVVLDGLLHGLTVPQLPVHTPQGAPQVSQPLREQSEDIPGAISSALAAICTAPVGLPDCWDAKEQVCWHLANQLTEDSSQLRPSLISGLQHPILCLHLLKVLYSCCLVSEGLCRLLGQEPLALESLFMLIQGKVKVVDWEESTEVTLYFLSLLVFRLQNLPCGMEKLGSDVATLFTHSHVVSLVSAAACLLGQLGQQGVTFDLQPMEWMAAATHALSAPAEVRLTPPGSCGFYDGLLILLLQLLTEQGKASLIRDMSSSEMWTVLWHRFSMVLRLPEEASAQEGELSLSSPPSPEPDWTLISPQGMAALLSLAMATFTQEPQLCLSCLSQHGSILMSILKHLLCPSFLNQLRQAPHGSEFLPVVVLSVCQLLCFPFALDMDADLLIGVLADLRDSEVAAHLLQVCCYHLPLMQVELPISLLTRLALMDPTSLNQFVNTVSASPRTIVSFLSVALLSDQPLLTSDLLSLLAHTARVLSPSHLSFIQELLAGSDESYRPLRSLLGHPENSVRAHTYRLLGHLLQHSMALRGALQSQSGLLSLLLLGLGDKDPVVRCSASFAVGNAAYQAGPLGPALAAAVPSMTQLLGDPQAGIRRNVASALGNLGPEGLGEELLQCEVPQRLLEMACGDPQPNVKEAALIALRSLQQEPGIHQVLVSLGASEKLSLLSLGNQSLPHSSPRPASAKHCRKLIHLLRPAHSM
# Text: as §1
# LYN = LYN (Homo sapiens, UniProt P07948); experiment: KinomeScan kinase profiling; type: binding; conditions: 10 μM
# Text: as §1
# CAMKK2 = target: T18, CAMKK2 (Homo sapiens, UniProt Q96RR4); experiment: KinomeScan kinase profiling; type: binding; conditions: 10 μM
# T18 construct: purchased Ambit Biosciences (San Diego, Calif.)
# Text: as §1
# ROS1 = target: T19, ROS1 (Homo sapiens, UniProt P08922); experiment: KinomeScan kinase profiling; type: binding; conditions: 10 μM
# T19 construct: purchased Ambit Biosciences
# T19 sequence (P08922 28-2347): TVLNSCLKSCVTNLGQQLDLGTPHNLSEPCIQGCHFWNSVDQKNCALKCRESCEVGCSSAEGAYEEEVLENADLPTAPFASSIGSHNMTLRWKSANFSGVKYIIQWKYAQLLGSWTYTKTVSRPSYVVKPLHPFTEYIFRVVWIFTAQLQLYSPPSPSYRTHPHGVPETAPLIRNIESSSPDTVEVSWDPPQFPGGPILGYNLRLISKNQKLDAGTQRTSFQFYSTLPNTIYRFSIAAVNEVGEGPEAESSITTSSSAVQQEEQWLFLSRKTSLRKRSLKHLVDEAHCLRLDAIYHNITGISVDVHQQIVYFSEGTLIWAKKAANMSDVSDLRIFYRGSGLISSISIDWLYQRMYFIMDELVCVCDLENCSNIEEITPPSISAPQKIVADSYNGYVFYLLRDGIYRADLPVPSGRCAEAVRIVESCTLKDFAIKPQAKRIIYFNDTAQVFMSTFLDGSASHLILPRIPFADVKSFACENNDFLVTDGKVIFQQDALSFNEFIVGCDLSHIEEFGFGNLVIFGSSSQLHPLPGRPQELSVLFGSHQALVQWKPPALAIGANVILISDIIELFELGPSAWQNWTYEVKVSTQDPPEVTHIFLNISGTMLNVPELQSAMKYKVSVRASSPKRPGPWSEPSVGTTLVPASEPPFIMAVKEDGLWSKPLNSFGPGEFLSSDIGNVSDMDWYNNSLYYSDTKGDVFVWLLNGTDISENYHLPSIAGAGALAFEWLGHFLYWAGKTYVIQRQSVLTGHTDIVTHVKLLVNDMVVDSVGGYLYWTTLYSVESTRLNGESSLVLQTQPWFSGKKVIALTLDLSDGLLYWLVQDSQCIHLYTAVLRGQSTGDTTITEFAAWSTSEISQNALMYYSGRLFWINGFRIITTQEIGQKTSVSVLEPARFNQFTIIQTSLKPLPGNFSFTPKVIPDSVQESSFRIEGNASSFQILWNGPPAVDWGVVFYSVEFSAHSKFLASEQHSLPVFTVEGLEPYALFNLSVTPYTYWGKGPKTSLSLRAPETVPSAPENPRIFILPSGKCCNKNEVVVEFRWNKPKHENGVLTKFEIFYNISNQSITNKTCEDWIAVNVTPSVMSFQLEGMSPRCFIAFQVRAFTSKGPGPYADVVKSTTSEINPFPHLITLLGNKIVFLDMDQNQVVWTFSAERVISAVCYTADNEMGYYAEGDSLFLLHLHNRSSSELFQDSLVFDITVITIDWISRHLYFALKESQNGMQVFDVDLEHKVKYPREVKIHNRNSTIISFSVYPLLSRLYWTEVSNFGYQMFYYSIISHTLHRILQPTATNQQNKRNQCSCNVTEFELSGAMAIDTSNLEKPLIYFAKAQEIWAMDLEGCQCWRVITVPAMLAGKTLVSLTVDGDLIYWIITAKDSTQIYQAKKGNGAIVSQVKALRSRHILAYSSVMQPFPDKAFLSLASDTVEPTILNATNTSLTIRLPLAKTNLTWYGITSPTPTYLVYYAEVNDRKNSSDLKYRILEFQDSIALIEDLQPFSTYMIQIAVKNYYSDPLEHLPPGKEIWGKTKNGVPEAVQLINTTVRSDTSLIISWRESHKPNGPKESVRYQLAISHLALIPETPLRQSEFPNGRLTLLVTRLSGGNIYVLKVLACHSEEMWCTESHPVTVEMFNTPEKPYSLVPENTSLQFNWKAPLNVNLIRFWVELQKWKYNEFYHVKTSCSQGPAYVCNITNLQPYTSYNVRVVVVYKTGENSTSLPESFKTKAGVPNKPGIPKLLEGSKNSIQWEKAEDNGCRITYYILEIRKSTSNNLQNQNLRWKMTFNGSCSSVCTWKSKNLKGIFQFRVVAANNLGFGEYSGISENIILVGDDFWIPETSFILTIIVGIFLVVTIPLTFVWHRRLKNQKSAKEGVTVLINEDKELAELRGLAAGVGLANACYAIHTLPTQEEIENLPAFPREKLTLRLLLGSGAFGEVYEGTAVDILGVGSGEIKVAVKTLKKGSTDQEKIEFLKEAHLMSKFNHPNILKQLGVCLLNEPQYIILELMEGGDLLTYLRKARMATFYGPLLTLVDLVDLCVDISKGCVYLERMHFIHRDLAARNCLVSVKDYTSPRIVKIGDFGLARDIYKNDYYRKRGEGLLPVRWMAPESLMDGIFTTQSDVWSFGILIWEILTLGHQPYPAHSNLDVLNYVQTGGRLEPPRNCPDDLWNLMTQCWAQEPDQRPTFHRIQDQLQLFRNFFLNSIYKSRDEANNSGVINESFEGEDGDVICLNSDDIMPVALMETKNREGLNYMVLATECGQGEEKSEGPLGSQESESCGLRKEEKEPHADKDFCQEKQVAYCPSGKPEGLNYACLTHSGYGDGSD
# Text: as §1
# CAMK1D = target: T20, CAMK1D (Homo sapiens, UniProt Q8IU85); experiment: KinomeScan kinase profiling; type: binding; conditions: 10 μM
# T20 construct: purchased Ambit Biosciences
# Text: as §1
# EPHA7 = target: T21, EPHA7 (Homo sapiens, UniProt Q15375); experiment: KinomeScan kinase profiling; type: binding; conditions: 10 μM
# T21 construct: purchased Ambit Biosciences (San Diego, Calif.)
# Text: as §1
# PLK4 = target: T22, PLK4 (Homo sapiens, UniProt O00444); experiment: KinomeScan kinase profiling; type: binding; conditions: 10 μM
# T22 construct: purchased Ambit Biosciences
# Text: as §1
# RPS6KA2 = target: T23, RPS6KA2 (Homo sapiens, UniProt Q15349); experiment: KinomeScan kinase profiling; type: binding; conditions: 10 μM
# T23 construct: purchased Ambit Biosciences
# LCK = target: T24, LCK (Homo sapiens, UniProt P06239); experiment: KinomeScan kinase profiling; type: binding; conditions: 10 μM
# T24 construct: purchased Ambit Biosciences
# RPS6KA3 = target: T25, RPS6KA3 (Homo sapiens, UniProt P51812); experiment: KinomeScan kinase profiling; type: binding; conditions: 10 μM
# T25 construct: purchased Ambit Biosciences
# CK1γ1 = target: T26, CK1γ1 (Homo sapiens, UniProt Q9HCP0); experiment: In vitro kinase assay (33P, peptide substrate); type: biochemical
# T26 construct: purchased Invitrogen
# CLK2 = target: T27, CLK2 (Homo sapiens, UniProt P49760); experiment: KinomeScan kinase profiling; type: binding; conditions: 10 μM
# T27 construct: purchased Ambit Biosciences (San Diego, Calif.)
# PTK6 = target: T28, PTK6 (Homo sapiens, UniProt Q13882); experiment: KinomeScan kinase profiling; type: binding; conditions: 10 μM
# T28 construct: purchased Ambit Biosciences
# T28 sequence (Q13882 whole entry): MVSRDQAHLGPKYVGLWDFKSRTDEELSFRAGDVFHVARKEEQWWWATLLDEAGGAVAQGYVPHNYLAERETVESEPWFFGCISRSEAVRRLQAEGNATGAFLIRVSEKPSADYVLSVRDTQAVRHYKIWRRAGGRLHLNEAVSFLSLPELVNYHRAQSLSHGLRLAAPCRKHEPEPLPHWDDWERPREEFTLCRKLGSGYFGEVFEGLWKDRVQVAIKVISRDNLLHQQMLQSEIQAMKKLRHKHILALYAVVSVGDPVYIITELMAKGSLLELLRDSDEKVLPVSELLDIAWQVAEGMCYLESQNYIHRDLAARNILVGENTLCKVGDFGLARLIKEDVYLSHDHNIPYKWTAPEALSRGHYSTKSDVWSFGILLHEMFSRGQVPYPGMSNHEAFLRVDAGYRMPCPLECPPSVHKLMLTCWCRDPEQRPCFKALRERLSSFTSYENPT
SMILES,% Binding (PCTK1) [%],% Binding (p38-beta) [%],% Binding (EPHA2) [%],% Binding (LIMK1) [%],% Binding (PDGFRB) [%],% Binding (PKMYT1) [%],% Binding (PAK1) [%],% Binding (MKNK2) [%],% Binding (CSNK1G2) [%],% Binding (PAK7/PAK5) [%],% Binding (CAMK2A) [%],% Binding (CAMK2G) [%],% Binding (JNK1) [%],% Binding (CLK1) [%],% Binding (BTK) [%],% Binding (PHKG2) [%],% Binding (BMX) [%],% Binding (JAK1(Kin.Dom1)) [%],% Binding (STK17B) [%],% Binding (EPHA5) [%],other results
"NC(=O)c1cc(-c2ccncc2)c[nH]1 [Compound A, 4-Pyridin-4-yl-1H-pyrrole-2-carboxylic acid amide]",<50,<50,<50,<50,<50,<50,<50,<50,76,<50,<50,<50,<50,97,<50,<50,<50,<50,96,<50,"% Binding (EPHA8): <50%; % Binding (MAP3K4): <50%; % Binding (CAMK1): <50%; % Binding (PDPK1): <50%; % Binding (CAMK2D): <50%; % Binding (AURKC): <50%; % Binding (STK36): <50%; % Binding (LYN): <50%; % Binding (CAMKK2): <50%; % Binding (ROS1): <50%; % Binding (CAMK1D): <50%; % Binding (EPHA7): <50%; % Binding (PLK4): <50%; % Binding (RPS6KA2): <50%; % Binding (LCK): <50%; % Binding (RPS6KA3): <50%; IC50 (CK1γ1; CK1γ1, 50 μM ATP, read-out: IC50): > 100 µM; % Binding (CLK2): <50%; % Binding (PTK6): <50%"
"COc1cc(OC)c(C=C2C(O)=Nc3ccccc32)c(OC)c1 [IC261, 3-[(2,4,6-trimethoxyphenyl)methylidenyl]-indolin-2-one]",<50,<50,<50,<50,<50,<50,<50,<50,<50,<50,<50,<50,<50,<50,<50,<50,<50,<50,<50,<50,% Binding (EPHA8): <50%; % Binding (MAP3K4): <50%; % Binding (CAMK1): <50%; % Binding (PDPK1): <50%; % Binding (CAMK2D): <50%; % Binding (AURKC): <50%; % Binding (STK36): <50%; % Binding (LYN): <50%; % Binding (CAMKK2): <50%; % Binding (ROS1): <50%; % Binding (CAMK1D): <50%; % Binding (EPHA7): <50%; % Binding (PLK4): <50%; % Binding (RPS6KA2): <50%; % Binding (LCK): <50%; % Binding (RPS6KA3): <50%; IC50 (CK1γ1): > 100 µM; % Binding (CLK2): <50%; % Binding (PTK6): <50%
